The molecules below were run against T1, Ecdysone receptor (Drosophila melanogaster, UniProt P34021) (assay: Binding affinity to ecdysone receptor ligand binding domain in Drosophila melanogaster assessed as number of hydrogen bonds formed).
T1 sequence (P34021 whole entry): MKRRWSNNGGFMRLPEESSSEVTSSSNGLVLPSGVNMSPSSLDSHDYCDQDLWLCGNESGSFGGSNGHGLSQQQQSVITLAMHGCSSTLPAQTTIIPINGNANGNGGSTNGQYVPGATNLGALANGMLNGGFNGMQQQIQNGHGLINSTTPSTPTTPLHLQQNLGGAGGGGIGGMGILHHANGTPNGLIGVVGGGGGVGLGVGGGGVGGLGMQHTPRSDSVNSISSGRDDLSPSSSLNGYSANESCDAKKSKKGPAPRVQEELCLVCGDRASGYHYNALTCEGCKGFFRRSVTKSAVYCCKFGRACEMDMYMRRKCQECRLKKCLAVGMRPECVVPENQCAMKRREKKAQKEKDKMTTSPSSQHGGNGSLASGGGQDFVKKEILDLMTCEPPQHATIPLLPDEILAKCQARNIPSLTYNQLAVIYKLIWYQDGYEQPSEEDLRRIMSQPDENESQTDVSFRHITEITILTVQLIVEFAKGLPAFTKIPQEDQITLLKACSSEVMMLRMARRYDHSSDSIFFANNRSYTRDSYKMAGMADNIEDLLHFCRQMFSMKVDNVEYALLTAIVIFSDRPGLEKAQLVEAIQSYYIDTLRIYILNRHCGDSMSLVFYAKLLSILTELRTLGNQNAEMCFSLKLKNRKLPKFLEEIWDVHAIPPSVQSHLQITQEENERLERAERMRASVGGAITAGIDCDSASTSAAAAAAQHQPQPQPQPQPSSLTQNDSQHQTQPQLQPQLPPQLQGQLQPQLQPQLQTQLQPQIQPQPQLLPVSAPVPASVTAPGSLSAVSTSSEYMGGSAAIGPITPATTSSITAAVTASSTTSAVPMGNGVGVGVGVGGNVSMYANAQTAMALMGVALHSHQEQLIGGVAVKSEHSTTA

SMILES | IC50 [nM]
C[C@H]([C@H](O)CCC(C)(C)O)[C@H]1CC[C@@]2(O)C3=CC(=O)[C@@H]4C[C@@H](O)[C@@H](O)C[C@]4(C)[C@H]3CC[C@]12C [ECDYSONE] | 2570
C[C@H](C[C@@H](O)[C@](C)(O)[C@H]1CC[C@@]2(O)C3=CC(=O)[C@@H]4C[C@@H](O)[C@@H](O)C[C@]4(C)[C@H]3CC[C@]12C)C(C)(C)O [MAKISTERONE A] | 112
CC(C)CC[C@@H](O)[C@](C)(O)[C@H]1CC[C@@]2(O)C3=CC(=O)[C@@H]4C[C@@H](O)[C@@H](O)C[C@]4(C)[C@H]3CC[C@]12C [PONASTERONE A] | 1.29
CC(C)CC[C@@H](O)[C@](C)(O)[C@H]1CC[C@H]2[C@@H]3C[C@@H](O)[C@H]4C[C@@H](O)CC[C@]4(C)[C@H]3CC[C@]12C | > 245000
C[C@@H]1C(=O)O[C@H](C)[C@H]1C[C@@H](O)[C@](C)(O)[C@H]1CC[C@@]2(O)C3=CC(=O)[C@@H]4C[C@@H](O)[C@@H](O)C[C@]4(C)[C@H]3CC[C@]12C [CYASTERONE] | 61.7
CC(C)CC[C@@H](O)[C@](C)(O)[C@H]1CC[C@H]2[C@@H]3CC(=O)[C@H]4C[C@H](O)CC[C@]4(C)[C@H]3CC[C@]12C | 794
CC(C)CC[C@@H](O)[C@](C)(O)[C@H]1CC[C@H]2[C@@H]3CC[C@H]4C[C@@H](O)CC[C@]4(C)[C@H]3CC[C@]12C | 41700
CC(C)CC[C@@H](O)[C@](C)(O)[C@H]1CC[C@H]2[C@@H]3CC=C4C[C@@H](O)CC[C@]4(C)[C@H]3CC[C@]12C | 41700
CC(C)CC[C@@H](O)[C@](C)(O)[C@H]1CC[C@H]2[C@@H]3CC(=O)[C@@H]4C[C@H](O)CC[C@]4(C)[C@H]3CC[C@]12C | 89100
CC(C)CC[C@@H](O)[C@](C)(O)[C@H]1CC[C@H]2[C@@H]3CC=C4CCCC[C@]4(C)[C@H]3CC[C@]12C | > 245000
CC(CO)CC[C@@H](O)[C@](C)(O)[C@H]1CC[C@@]2(O)C3=CC(=O)[C@@H]4C[C@@H](O)[C@@H](O)C[C@]4(C)[C@H]3CC[C@]12C (some centres undefined) [INOKOSTERONE] | 91.2
CC(C)CC[C@@H](O)[C@](C)(O)[C@H]1CC[C@H]2[C@@H]3CC(=O)[C@H]4C[C@@H](O)[C@@H](O)C[C@]4(C)[C@H]3CC[C@]12C | 14500
CC(C)CC[C@H](O)[C@](C)(O)[C@H]1CC[C@H]2[C@@H]3CC(=O)[C@H]4C[C@H](O)[C@H](O)C[C@]4(C)[C@H]3CC[C@]12C | 38900
CC(C)CC[C@@H](O)[C@](C)(O)[C@H]1CC[C@H]2[C@@H]3CC(=O)[C@H]4C[C@H](O)[C@H](O)C[C@]4(C)[C@H]3CC[C@]12C | 324
CC(C)CC[C@@H](O)[C@](C)(O)[C@H]1CC[C@H]2[C@@H]3CC[C@H]4CCCC[C@]4(C)[C@H]3CC[C@]12C | > 245000
CC(C)CC[C@@H](O)[C@](C)(O)[C@H]1CC[C@H]2[C@@H]3C[C@H](O)[C@H]4C[C@@H](O)CC[C@]4(C)[C@H]3CC[C@]12C | > 245000
CC(C)(O)CC[C@@H](O)[C@](C)(O)[C@H]1CC[C@@]2(O)C3=CC(=O)[C@@H]4C[C@@H](O)[C@@H](O)C[C@]4(C)[C@H]3CC[C@]12C [20-HYDROXYECDYSONE] | 45.7
CC(C)CC[C@@H](O)[C@](C)(O)[C@H]1CC[C@H]2[C@@H]3CC(=O)[C@H]4C[C@@H](O)CC[C@]4(C)[C@H]3CC[C@]12C | 9550
CC(C)CC[C@@H](O)[C@](C)(O)[C@H]1CC[C@H]2[C@@H]3CC(=O)[C@@H]4C[C@@H](O)[C@@H](O)C[C@]4(C)[C@H]3CC[C@]12C | 58.9

Reference: ChEMBL document CHEMBL1153508, “Evaluation of hydrogen bonds of ecdysteroids in the ligand-receptor interactions using a protein modeling system” (Bioorg Med Chem, 2009)
